In PubChem BioAssay (NCI):
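Method: 48-hour compound exposure of cells in 96-well plates, five concentrations, linear interpolation of endpoints. Abbreviation: GI50, concentration required for 50% inhibition of growth. At the TGI there is no net growth.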

Columns and labels:
Test in all cases: inhibition of tumour cell growth, NCI panel, 48 h
[1] = tested on: LOX IMVI melanoma
[2] = tested on: SR leukemia
[3] = tested on: SN12C renal
[4] = tested on: MDA-MB-468 breast
[5] = tested on: NCI/ADR-RES ovarian
[6] = tested on: MDA-MB-435
[7] = tested on: HT29 colon
[8] = tested on: A498 renal
[9] = tested on: TK-10 renal
[10] = tested on: T-47D breast
[11] = tested on: SF-295 CNS
[12] = tested on: 786-0 renal
[13] = tested on: COLO 205 colon
[14] = tested on: PC-3 prostate
[15] = tested on: MOLT-4 leukemia
[16] = tested on: KM12 colon
[17] = tested on: K-562 leukemia
[18] = tested on: UACC-257 melanoma
[19] = tested on: SNB-75 CNS
[20] = tested on: HCT-15 colon
[21] = tested on: IGROV1 ovarian
[22] = tested on: RXF 393 renal
[23] = tested on: OVCAR-3 ovarian
[24] = tested on: OVCAR-8 ovarian
[25] = tested on: MDA-MB-231 breast
[26] = tested on: OVCAR-4 ovarian
[27] = tested on: A549 NSCLC
[28] = tested on: ACHN renal
[29] = tested on: HOP-62 NSCLC
[30] = tested on: SK-MEL-2 melanoma
[31] = tested on: NCI-H460 lung
[32] = tested on: U251 CNS
[33] = tested on: SK-MEL-28 melanoma
[34] = tested on: EKVX NSCLC
[35] = tested on: SF-268 CNS
[36] = tested on: NCI-H522 lung
[37] = tested on: HS 578T breast
[38] = tested on: MCF7 breast
[39] = tested on: CCRF-CEM leukemia
[40] = tested on: OVCAR-5 ovarian
[41] = tested on: HCC-2998 colon
[42] = tested on: SK-MEL-5 melanoma
[43] = tested on: HCT-116 colon
[44] = tested on: NCI-H23 lung
[45] = tested on: SF-539 CNS
[46] = tested on: UACC-62 melanoma
[47] = tested on: BT-549 breast
[48] = tested on: SK-OV-3 ovarian
[49] = tested on: RPMI-8226 leukemia
[50] = tested on: UO-31 renal
[51] = tested on: MALME-3M melanoma
[52] = tested on: SNB-19 CNS
[53] = tested on: NCI-H226 lung
[54] = tested on: HOP-92 NSCLC
[55] = tested on: CAKI-1 renal
[56] = tested on: M14 melanoma
[57] = tested on: HL-60(TB) leukemia
[58] = tested on: DU-145 prostate

With CC1=C2C(=C[C@@](C)(COCOCCCl)[C@@H]2O)C(=O)[C@](C)(O)C12CC2 the GI50 [1] was 0.137 µM, the TGI [1] was 0.493 µM and the GI50 [2] was 0.0647 µM. The TGI [2] was over 100 µM, the GI50 [3] was 0.299 µM and the TGI [3] was 1.2 µM. The GI50 [4] was 0.123 µM, the TGI [4] was 0.299 µM and the GI50 [5] was 0.16 µM. The TGI [5] was 0.438 µM, the GI50 [6] was 0.322 µM and the TGI [6] was 1.09 µM. The GI50 [7] was 0.174 µM, the GI50 [8] was 1.61 µM and the TGI [8] was 4.99 µM. For the same molecule, the GI50 [9] was 0.429 µM, the GI50 [10] was 0.506 µM and the TGI [10] was 5.69 µM. The GI50 [11] was 0.234 µM, the TGI [11] was 7.76 µM and the GI50 [12] was 0.638 µM. The TGI [12] was 1.98 µM, the GI50 [13] was 0.258 µM and the TGI [13] was 0.924 µM. It also gave a GI50 [14] of 0.23 µM, a GI50 [15] of 0.141 µM and a TGI [15] of over 48.3 µM. For the same molecule, the GI50 [16] was 0.35 µM, the TGI [16] was 4.83 µM and the GI50 [17] was 0.445 µM. The TGI [17] was over 100 µM, the GI50 [18] was 0.647 µM and the TGI [18] was 3.97 µM. The GI50 [19] was 0.241 µM, the TGI [19] was 1.25 µM and the GI50 [20] was 0.0644 µM. For the same molecule, the TGI [20] was 2.55 µM, the GI50 [21] was 0.229 µM and the TGI [21] was 0.961 µM. For the same molecule, the GI50 [22] was 0.154 µM, the TGI [22] was 0.351 µM and the GI50 [23] was 0.265 µM. For the same molecule, the TGI [23] was 0.765 µM, the GI50 [24] was 0.211 µM and the TGI [24] was 0.79 µM. It also gave a GI50 [25] of 0.294 µM, a TGI [25] of 1.03 µM and a GI50 [26] of 0.265 µM. For the same molecule, the TGI [26] was 0.86 µM, the GI50 [27] was 0.322 µM and the TGI [27] was 6.86 µM. For the same molecule, the GI50 [28] was 0.0554 µM, the TGI [28] was 0.387 µM and the GI50 [29] was 0.344 µM. For the same molecule, the TGI [29] was 1.88 µM, the GI50 [30] was 0.184 µM and the TGI [30] was 0.35 µM. The GI50 [31] was 0.113 µM, the TGI [31] was 0.656 µM and the GI50 [32] was 0.113 µM. For the same molecule, the TGI [32] was 19.9 µM, the GI50 [33] was 0.389 µM and the TGI [33] was 1.31 µM. It also gave a GI50 [34] of 0.285 µM, a TGI [34] of 0.87 µM and a GI50 [35] of 0.305 µM. It also gave a TGI [35] of 1.7 µM, a GI50 [36] of 0.184 µM and a TGI [36] of 0.495 µM. It also gave a GI50 [37] of 0.598 µM, a TGI [37] of 4 µM and a GI50 [38] of 0.045 µM. For the same molecule, the TGI [38] was 3.18 µM, the GI50 [39] was 0.626 µM and the TGI [39] was over 33.8 µM. For the same molecule, the GI50 [40] was 0.178 µM, the TGI [40] was 1.07 µM and the GI50 [41] was 0.199 µM. The TGI [41] was 0.495 µM, the GI50 [42] was 0.209 µM and the TGI [42] was 0.499 µM. The GI50 [43] was 0.128 µM, the TGI [43] was over 41.5 µM and the GI50 [44] was 0.105 µM. The TGI [44] was 0.304 µM, the GI50 [45] was 0.202 µM and the TGI [45] was 0.447 µM. For the same molecule, the GI50 [46] was 0.198 µM, the TGI [46] was 0.429 µM and the GI50 [47] was 0.243 µM. It also gave a TGI [47] of 0.786 µM, a GI50 [48] of 0.415 µM and a TGI [48] of 2.17 µM. For the same molecule, the GI50 [49] was 3.75 µM, the TGI [49] was over 58.3 µM and the GI50 [50] was 0.186 µM. It also gave a TGI [50] of 0.549 µM, a GI50 [51] of 0.229 µM and a TGI [51] of 0.509 µM. For the same molecule, the GI50 [52] was 0.346 µM, the TGI [52] was 2.46 µM and the GI50 [53] was 0.845 µM. It also gave a TGI [53] of 4.01 µM, a GI50 [54] of 0.248 µM and a TGI [54] of 0.685 µM. It also gave a GI50 [55] of 0.263 µM, a TGI [55] of 2.1 µM and a GI50 [56] of 0.285 µM. For the same molecule, the TGI [56] was 0.99 µM, the GI50 [57] was 0.126 µM and the TGI [57] was 2.13 µM. It also gave a GI50 [58] of 0.142 µM and a TGI [58] of 1.51 µM.
